Data on 22 compounds can be found in ChEMBL document CHEMBL1137112, “4-Acylamino-6-arylfuro[2,3-d]pyrimidines: potent and selective glycogen synthase kinase-3 inhibitors” (Bioorg Med Chem Lett, 2004).

Bounds are passed on as bounds.

The target of experiment [1] is Cyclin-dependent kinase 2 (Homo sapiens, UniProt P24941). In words: Inhibition of cyclin-dependent kinase 2.
Another experiment has as its system L6. Description: Potency of compound in glycogen accumulation in L6 cells. Particulars: Rattus norvegicus. In kind it is functional, cell-based.
Experiment [2] addresses Glycogen synthase kinase-3 beta (Homo sapiens, UniProt P49841). In words: Inhibition of human Glycogen synthase kinase-3 beta.
For experiment [3], the target named is Vascular endothelial growth factor receptor 2 (Homo sapiens, UniProt P35968). Description: Inhibition of Vascular endothelial growth factor receptor 2 kinase.
Vascular endothelial growth factor receptor 2, sequence (P35968 whole entry): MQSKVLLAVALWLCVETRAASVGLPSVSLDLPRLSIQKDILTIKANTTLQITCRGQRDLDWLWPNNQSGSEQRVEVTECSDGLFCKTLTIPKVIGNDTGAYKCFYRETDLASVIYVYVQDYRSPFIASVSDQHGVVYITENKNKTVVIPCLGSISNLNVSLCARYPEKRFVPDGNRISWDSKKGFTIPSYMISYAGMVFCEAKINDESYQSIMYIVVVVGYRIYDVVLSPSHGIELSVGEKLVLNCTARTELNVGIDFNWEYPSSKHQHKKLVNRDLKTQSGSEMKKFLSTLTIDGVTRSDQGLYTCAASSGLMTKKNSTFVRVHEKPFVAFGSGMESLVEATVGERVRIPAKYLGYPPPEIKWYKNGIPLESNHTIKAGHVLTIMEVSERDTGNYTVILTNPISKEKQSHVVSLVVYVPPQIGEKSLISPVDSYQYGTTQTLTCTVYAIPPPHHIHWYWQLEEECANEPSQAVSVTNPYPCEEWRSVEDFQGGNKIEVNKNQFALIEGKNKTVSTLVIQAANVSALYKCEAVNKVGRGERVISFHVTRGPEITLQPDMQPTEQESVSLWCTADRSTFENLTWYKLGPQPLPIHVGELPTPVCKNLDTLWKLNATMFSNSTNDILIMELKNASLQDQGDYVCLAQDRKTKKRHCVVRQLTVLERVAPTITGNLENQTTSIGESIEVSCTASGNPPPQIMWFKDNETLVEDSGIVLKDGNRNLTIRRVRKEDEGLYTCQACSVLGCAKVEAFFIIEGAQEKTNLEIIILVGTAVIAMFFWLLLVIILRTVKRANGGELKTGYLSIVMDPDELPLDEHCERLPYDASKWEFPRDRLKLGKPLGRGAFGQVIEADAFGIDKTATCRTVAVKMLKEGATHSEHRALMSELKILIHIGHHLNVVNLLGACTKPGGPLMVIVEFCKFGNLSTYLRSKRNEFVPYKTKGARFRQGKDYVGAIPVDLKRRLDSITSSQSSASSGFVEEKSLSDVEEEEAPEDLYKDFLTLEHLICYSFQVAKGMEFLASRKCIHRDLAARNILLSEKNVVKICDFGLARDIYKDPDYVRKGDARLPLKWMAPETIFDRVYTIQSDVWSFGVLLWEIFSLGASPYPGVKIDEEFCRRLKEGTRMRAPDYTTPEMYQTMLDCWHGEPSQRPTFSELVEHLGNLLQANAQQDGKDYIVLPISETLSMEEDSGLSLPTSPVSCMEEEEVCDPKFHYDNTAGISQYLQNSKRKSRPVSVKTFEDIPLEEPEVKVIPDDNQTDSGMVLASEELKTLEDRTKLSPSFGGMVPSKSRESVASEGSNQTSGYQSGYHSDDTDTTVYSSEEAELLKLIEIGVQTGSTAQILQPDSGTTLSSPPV

Glycogen synthase kinase-3 beta, sequence (P49841 whole entry): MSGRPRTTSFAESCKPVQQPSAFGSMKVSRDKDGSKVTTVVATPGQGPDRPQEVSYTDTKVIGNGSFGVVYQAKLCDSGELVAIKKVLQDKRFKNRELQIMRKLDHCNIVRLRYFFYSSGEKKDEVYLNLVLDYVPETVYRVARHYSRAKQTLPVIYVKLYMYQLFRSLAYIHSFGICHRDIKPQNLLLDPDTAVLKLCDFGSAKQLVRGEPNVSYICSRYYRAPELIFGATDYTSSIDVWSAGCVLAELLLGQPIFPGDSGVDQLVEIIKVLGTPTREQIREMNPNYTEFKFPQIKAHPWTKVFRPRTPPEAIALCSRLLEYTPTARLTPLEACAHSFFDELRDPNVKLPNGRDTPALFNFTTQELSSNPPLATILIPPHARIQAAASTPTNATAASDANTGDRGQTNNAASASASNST

For the compound `O=C(Nc1ncnc2oc(-c3ccccc3)cc12)C1CCCC1`, the IC50 in experiment [1] is above 19000 nM; in experiment [2], 20 nM; in experiment [3] it was above 23000 nM. The same compound had an EC50 in the experiment on L6 above 10000 nM.

In the case of `COc1ccc(-c2cc3c(NC(=O)CC4CCCC4)ncnc3o2)cc1`, the IC50 in experiment [1] is above 19000 nM; in experiment [2], 320 nM; in experiment [3], above 48000 nM.

On to `O=C(Nc1ncnc2oc(-c3ccccc3)cc12)C1CC1`, for which the IC50 in experiment [1] was above 21000 nM; in experiment [2] it was 170 nM; in experiment [3], 830 nM.

In the case of `O=C(Nc1ncnc2oc(-c3cccnc3)cc12)C1CC1`, the half-inhibitory concentration (IC50) stood at 440 nM in experiment [1], 5 nM in experiment [2] and 3240 nM in experiment [3]. This compound also gave an EC50 in the experiment on L6 of 740 nM.

As for `COc1ccc(-c2cc3c(NC(=O)C4CC4)ncnc3o2)cc1`, the IC50 is above 20000 nM in experiment [1], 316 nM in experiment [2] and 3550 nM in experiment [3].

With `COc1ccc(-c2cc3c(NC(=O)N4CCOCC4)ncnc3o2)cc1`, the figures for the IC50 in experiment [1], in experiment [2] and in experiment [3] were above 20000 nM, above 34000 nM and above 48000 nM, respectively.

For `COc1ccc(-c2cc3c(NC(=O)C4CCCCC4)ncnc3o2)cc1`, the values for the half-maximal inhibitory concentration (IC50) in experiment [1], in experiment [2] and in experiment [3] were above 20000 nM, 1820 nM and above 48000 nM, respectively.

Regarding `CCCCCC(=O)Nc1ncnc2oc(-c3ccc(OC)cc3)cc12`, the IC50 in experiment [1] was above 19000 nM; in experiment [2] it was 437 nM; in experiment [3], above 48000 nM.

As to `COc1ccc(-c2cc3c(NC(=O)c4cccc(F)c4)ncnc3o2)cc1`, the IC50 in experiment [1] is above 21000 nM; in experiment [2], above 35000 nM; in experiment [3] it was 21900 nM.

Turning to `COc1ccc(-c2cc3c(NC(=O)C4CCCC4)ncnc3o2)cc1`, the IC50 is above 19000 nM in experiment [1], 30 nM in experiment [2] and 1020 nM in experiment [3].

As for `O=C(Nc1ncnc2oc(-c3ccc(Cl)cc3)cc12)C1CCCC1`, the IC50 in experiment [1] was above 20000 nM; in experiment [2], 550 nM; in experiment [3] it was above 20000 nM.

In the case of `O=C(Nc1ncnc2oc(-c3ccc(F)cc3)cc12)C1CCCC1`, the values for the IC50 in experiment [1], in experiment [2] and in experiment [3] were above 19000 nM, 219 nM and above 19000 nM, respectively.

Regarding `Cc1ccc(-c2cc3c(NC(=O)C4CCCC4)ncnc3o2)cc1`, the results for the IC50 in experiment [1], in experiment [2] and in experiment [3] were above 20000 nM, 240 nM and above 20000 nM, respectively.

In the case of `O=C(Nc1ncnc2oc(-c3cccnc3)cc12)C1CCCC1`, the IC50 is 450 nM in experiment [1], 5 nM in experiment [2] and above 24000 nM in experiment [3]. In addition, in the experiment with L6, the EC50 stood at 390 nM.

In experiment [2], `COc1ccc(-c2oc3ncnc(N)c3c2-c2cccnc2)cc1` registered an IC50 of 80 nM.

`COc1ccc(-c2cc3c(NC(=O)N4CCCC4)ncnc3o2)cc1`: the IC50 in experiment [1] is above 21000 nM; in experiment [2], 1950 nM; in experiment [3], 12300 nM.

As to `O=C(Nc1ncnc2oc(-c3ccc(F)cc3)cc12)C1CC1`, the values for the IC50 in experiment [1], in experiment [2] and in experiment [3] were above 19000 nM, 575 nM and 2040 nM, respectively.

For `COc1ccc(-c2cc3c(NC(=O)c4ccco4)ncnc3o2)cc1`, the IC50 in experiment [1] is above 20000 nM; in experiment [2], 2400 nM; in experiment [3] it was above 48000 nM.

`Cc1ccc(-c2cc3c(NC(=O)C4CC4)ncnc3o2)cc1` [GW819230X]: the half-maximal inhibitory concentration (IC50) was above 21000 nM in experiment [1], 617 nM in experiment [2] and 630 nM in experiment [3].

As to `COc1ccc(-c2cc3c(NC(=O)C(C)C)ncnc3o2)cc1`, the IC50 was above 21000 nM in experiment [1], 130 nM in experiment [2] and above 48000 nM in experiment [3].

As for `COc1ccc(-c2cc3c(NC(=O)CCSC)ncnc3o2)cc1`, the IC50 in experiment [1] is above 20000 nM; in experiment [2], 537 nM; in experiment [3] it was above 47000 nM.

In the case of `O=C(Nc1ncnc2oc(-c3ccc(Cl)cc3)cc12)C1CC1`, the IC50 in experiment [1] was above 20000 nM; in experiment [2], 1000 nM; in experiment [3], 2040 nM.

Broadly, the IC50 is the concentration needed to halve the response being measured. Low readings indicate higher potency, high ones lower potency. As a reminder, the EC50 is the concentration needed to bring the measured effect to its halfway point. A higher EC50 goes with a need for much substance.
